12 compounds from US20070049564A1 (Wyeth, priority 2005, published 2007) can be followed below.

One test has as its system Staph. aureus Smith. The test is described as follows: In vitro activity (MIC) against Staph. aureus Smith. It counts as cell-based. Conditions: Staphylococcus aureus.
In another test the test system is E. coli #311. Kind of test: In vivo activity (oral, iv; ED50) against E. coli in mice. Conditions: Escherichia coli. The source says: . […] Smith and E. Coli #311 in mammals.
Results of the tests (MIC, oral and IV) are list in Table 7.

A further test has as its system E. coli. The test is described as follows: In vitro activity (MIC) against E. coli (Table 7). The format is cell-based. Conditions: Escherichia coli.
Another test has as its system Salmonella spp. GC 235. Kind of test: MIC, broth microdilution. Conditions: Salmonella.
The test system of a further test is S. cholerasius GC 1355. The test is described as follows: MIC, broth microdilution.
The test system of a further test is Salmonella spp. GC 566. The test is described as follows: MIC, broth microdilution. Conditions: Salmonella.
The mark [1] stands for this setting: single intravenous dose (SIV), read-out: ED50 E. coli #311 SIV.
The mark [2] stands for this setting: single oral dose (SOD), read-out: ED50 E. coli #311 SOD.
[3] abbreviates: single intravenous dose, mice, Table 7, read-out: ED50 SIV (E. coli).
The mark [4] stands for this setting: single oral dose, mice, Table 7, read-out: ED50 SOD (E. coli).
The mark [5] stands for this setting: SPP.GC235, pre-incubation in human serum.
[6] abbreviates: SPP.GC235, pre-incubation in mouse serum.
The mark [7] stands for this setting: SPP.GC235, pre-incubation in water.
Where [8] appears, read: SPP.GC566, pre-incubation in human serum.
Setting [9] is: SPP.GC566, pre-incubation in mouse serum.
The mark [10] stands for this setting: SPP.GC566, pre-incubation in water.

≈ marks a conversion by molar mass, not a printed value. Like-named read-outs stand apart in the source and are kept apart here. Where only a bound is given, the exact number is not on record here.

Protocol for S. cholerasius GC 1355: (§1) Antimicrobial susceptibility testing. The in vitro activities of the antibiotics are determined by the broth microdilution method as recommended by the National Committee for Clinical Laboratory Standards (NCCLS) (1). Mueller-Hinton II broth (MHBII)(BBL Cockeysville, Md.) is the medium employed in the testing procedures. Microtiter plates containing serial dilutions of each antimicrobial agent are inoculated with each organism to yield the appropriate density (10^5 CFU/ml) in a 100 μl final volume. The plates are incubated for 18-22 hours at 35° C. in ambient air.
(§2) Presented in Tables I-XIII are representative compounds of Formula I which were evaluated against a panel of 40 selected gram-positive and gram-negative bacteria strains by pre-incubation in water, mouse serum or human serum. Representative compounds were first incubated in mouse serum for an hour prior to the in vitro testing against a panel of selected gram-positive and gram-negative bacteria strains. All compounds were also pre-incubated in water for an hour prior to testing as control. Representative compounds of Formula I were incubated in human serum prior to MIC determination.
Protocol for Salmonella spp. GC 235: as §1
Representative compounds were first incubated in mouse serum for an hour prior to the in vitro testing against a panel of selected gram-positive and gram-negative bacteria strains. All compounds were also pre-incubated in water for an hour prior to testing as control.
Protocol for Salmonella spp. GC 566: as §1, §2

In the test on Staph. aureus Smith (Table 8), `CCCN(CC(=O)Nc1cc(N(C)C)c2c(c1O)C(=O)C1=C(O)[C@]3(O)C(=O)C(C(N)=O)=C(O)[C@@H](N(C)C)[C@@H]3C[C@@H]1C2)C(=O)OCOC(=O)c1cc(C)cc(C)c1` [Example 26, ({[(2-{[(5aR,6aS,7S,10aS)-9-(aminocarbonyl)-4,7-bis(dimethylamino)-1,8,10a,11-tetrahydroxy-10,12-dioxo-5,5a,6,6a,7,10,10a,12-octahydrotetracen-2-yl]amino}-2-oxoethyl)(propyl)amino]carbonyl}oxy)methyl 3,5-dimethylbenzoate] showed an MIC of 0.5 µg/mL (≈ 0.643 µM).

As to `CCCN(CC(=O)Nc1cc(N(C)C)c2c(c1O)C(=O)C1=C(O)[C@]3(O)C(=O)C(C(N)=O)=C(O)[C@@H](N(C)C)[C@@H]3C[C@@H]1C2)C(=O)OCOC(=O)c1ccc(C(C)(C)C)cc1` [Example 28, ({[(2-{[(5aR,6aS,7S,10aS)-9-(aminocarbonyl)-4,7-bis(dimethylamino)-1,8,10a,11-tetrahydroxy-10,12-dioxo-5,5a,6,6a,7,10,10a,12-octahydrotetracen-2-yl]amino}-2-oxoethyl)(propyl)amino]carbonyl}oxy)methyl 4-tert-butylbenzoate], the ED50 in the test on E. coli #311 (setting [1]) is more than 2 mg/kg; with E. coli #311 (setting [2]), more than 32 mg/kg. The lowest concentration to inhibit growth in the test with Staph. aureus Smith (Table 8) (MIC) was 32 µg/mL (≈ 39.7 µM).

In the case of `CN(C)c1cc(NC(=O)CN(C(=O)OCOC(=O)CC(C)(C)C)C(C)(C)C)c(O)c2c1C[C@H]1C[C@H]3[C@H](N(C)C)C(O)=C(C(N)=O)C(=O)[C@@]3(O)C(O)=C1C2=O` [Example 42, ({[(2-{[(5aR,6aS,7S,10aS)-9-(aminocarbonyl)-4,7-bis(dimethylamino)-1,8,10a,11-tetrahydroxy-10,12-dioxo-5,5a,6,6a,7,10,10a,12-octahydrotetracen-2-yl]amino}-2-oxoethyl)(tert-butyl)amino]carbonyl}oxy)methyl 3,3-dimethylbutanoate], the MIC was more than 64 µg/mL in the test on E. coli and 8 µg/mL (≈ 10.6 µM) against Staph. aureus Smith (Table 6). Also, the ED50 in the test with E. coli #311 (setting [1]) was found to be 3.1 mg/kg; in the test on E. coli #311 (setting [3]), 3.1 mg/kg; in the test on E. coli #311 (setting [2]), 30.3 mg/kg; in the test with E. coli #311 (setting [4]), 30.3 mg/kg.

As to `CCC(C)(C)C(=O)OCOC(=O)N(CC(=O)Nc1cc(N(C)C)c2c(c1O)C(=O)C1=C(O)[C@]3(O)C(=O)C(C(N)=O)=C(O)[C@@H](N(C)C)[C@@H]3C[C@@H]1C2)C(C)(C)C` [Example 44, ({[(2-{[(5aR,6aS,7S,10aS)-9-(aminocarbonyl)-4,7-bis(dimethylamino)-1,8,10a,11-tetrahydroxy-10,12-dioxo-5,5a,6,6a,7,10,10a,12-octahydrotetracen-2-yl]amino}-2-oxoethyl)(tert-butyl)amino]carbonyl}oxy)methyl 2,2-dimethylbutanoate], the results for the MIC against E. coli and with Staph. aureus Smith (Table 6) were more than 64 µg/mL and 4 µg/mL (≈ 5.28 µM), respectively. Also, the ED50 with E. coli #311 (setting [1]) was determined as 2.85 mg/kg; in the test on E. coli #311 (setting [3]), 2.85 mg/kg; in the test with E. coli #311 (setting [2]) it was 42.8 mg/kg; in the test with E. coli #311 (setting [4]) it was 42.8 mg/kg.

For the compound `CC(C)C(=O)OCOC(=O)N(CC(=O)Nc1cc(N(C)C)c2c(c1O)C(=O)C1=C(O)[C@]3(O)C(=O)C(C(N)=O)=C(O)[C@@H](N(C)C)[C@@H]3C[C@@H]1C2)C(C)(C)C` [Example 45, ({[(2-{[(5aR,6aS,7S,10aS)-9-(aminocarbonyl)-4,7-bis(dimethylamino)-1,8,10a,11-tetrahydroxy-10,12-dioxo-5,5a,6,6a,7,10,10a,12-octahydrotetracen-2-yl]amino}-2-oxoethyl)(tert-butyl)amino]carbonyl}oxy)methyl 2-methylpropanoate], the results for the MIC in the test with E. coli and with Staph. aureus Smith (Table 6) were 64 µg/mL (≈ 87.7 µM) and 1 µg/mL (≈ 1.37 µM), respectively. The ED50 in the test with E. coli #311 (setting [1]) is 1.8 mg/kg; in the test on E. coli #311 (setting [3]), 1.8 mg/kg; with E. coli #311 (setting [2]), 64 mg/kg; with E. coli #311 (setting [4]) it was 64 mg/kg.

For `Cc1ccc(C(=O)OCOC(=O)N(CC(=O)Nc2cc(N(C)C)c3c(c2O)C(=O)C2=C(O)[C@]4(O)C(=O)C(C(N)=O)=C(O)[C@@H](N(C)C)[C@@H]4C[C@@H]2C3)C(C)(C)C)cc1` [Example 47], the ED50 in the test on E. coli #311 (setting [1]) is 3.17 mg/kg; with E. coli #311 (setting [2]) it was more than 64 mg/kg. In addition, in the test on Staph. aureus Smith (Table 6), the MIC amounted to 4 µg/mL (≈ 5.14 µM).

Take `CCCCCCC(=O)OCOC(=O)N(CC(=O)Nc1cc(N(C)C)c2c(c1O)C(=O)C1=C(O)[C@]3(O)C(=O)C(C(N)=O)=C(O)[C@@H](N(C)C)[C@@H]3C[C@@H]1C2)C(C)(C)C` [Example 48, ({[(2-{[(5aR,6aS,7S,10aS)-9-(aminocarbonyl)-4,7-bis(dimethylamino)-1,8,10a,11-tetrahydroxy-10,12-dioxo-5,5a,6,6a,7,10,10a,12-octahydrotetracen-2-yl]amino}-2-oxoethyl)(tert-butyl)amino]carbonyl}oxy)methyl heptanoate]: the MIC in the test with E. coli was more than 64 µg/mL; against Staph. aureus Smith (Table 6), 0.25 µg/mL (≈ 0.324 µM). Besides, the ED50 in the test with E. coli #311 (setting [1]) is 1.7 mg/kg; with E. coli #311 (setting [3]) it was 1.7 mg/kg; with E. coli #311 (setting [2]) it was 29.8 mg/kg; with E. coli #311 (setting [4]), 29.8 mg/kg.

On to `CCC(=O)OCOC(=O)N(CC(=O)Nc1cc(N(C)C)c2c(c1O)C(=O)C1=C(O)[C@]3(O)C(=O)C(C(N)=O)=C(O)[C@@H](N(C)C)[C@@H]3C[C@@H]1C2)C(C)(C)C` [Example 49, ({[(2-{[(5aR,6aS,7S,10aS)-9-(aminocarbonyl)-4,7-bis(dimethylamino)-1,8,10a,11-tetrahydroxy-10,12-dioxo-5,5a,6,6a,7,10,10a,12-octahydrotetracen-2-yl]amino}-2-oxoethyl)(tert-butyl)amino]carbonyl}oxy)methyl propionate], for which the MIC with E. coli was determined as 64 µg/mL (≈ 89.4 µM); in the test with Staph. aureus Smith (Table 6) it was 0.25 µg/mL (≈ 0.349 µM). Further, the ED50 with E. coli #311 (setting [1]) is 2.2 mg/kg; in the test on E. coli #311 (setting [3]), 2.2 mg/kg; in the test with E. coli #311 (setting [2]), 49 mg/kg; in the test on E. coli #311 (setting [4]), 49 mg/kg.

With `CN(C)c1cc(NC(=O)CN(C(=O)OCOC(=O)C2CCCCC2)C(C)(C)C)c(O)c2c1C[C@H]1C[C@H]3[C@H](N(C)C)C(O)=C(C(N)=O)C(=O)[C@@]3(O)C(O)=C1C2=O` [Example 50, ({[(2-{[(5aR,6aS,7S,10aS)-9-(aminocarbonyl)-4,7-bis(dimethylamino)-1,8,10a,11-tetrahydroxy-10,12-dioxo-5,5a,6,6a,7,10,10a,12-octahydrotetracen-2-yl]amino}-2-oxoethyl)(tert-butyl)amino]carbonyl}oxy)methyl cyclohexanecarboxylate], the MIC is more than 64 µg/mL with E. coli and 0.5 µg/mL (≈ 0.649 µM) against Staph. aureus Smith (Table 6). Further, the ED50 in the test on E. coli #311 (setting [1]) was 2.59 mg/kg; in the test on E. coli #311 (setting [3]) it was 1.7 mg/kg; in the test with E. coli #311 (setting [2]), more than 64 mg/kg; with E. coli #311 (setting [4]) it was 29.8 mg/kg.

Consider `CN(C)c1cc(NC(=O)CN(C(=O)OCOC(=O)c2ccc(F)cc2)C(C)(C)C)c(O)c2c1C[C@H]1C[C@H]3[C@H](N(C)C)C(O)=C(C(N)=O)C(=O)[C@@]3(O)C(O)=C1C2=O` [Example 52, ({[(2-{[(5aR,6aS,7S,10aS)-9-(aminocarbonyl)-4,7-bis(dimethylamino)-1,8,10a,11-tetrahydroxy-10,12-dioxo-5,5a,6,6a,7,10,10a,12-octahydrotetracen-2-yl]amino}-2-oxoethyl)(tert-butyl)amino]carbonyl}oxy)methyl 4-fluorobenzoate], for which the MIC was found to be 8 µg/mL (≈ 10.2 µM) against E. coli and 2 µg/mL (≈ 2.56 µM) with Staph. aureus Smith (Table 6). Besides, the ED50 in the test with E. coli #311 (setting [1]) worked out at 3.78 mg/kg; in the test on E. coli #311 (setting [3]), 3.78 mg/kg; in the test with E. coli #311 (setting [2]), 43.7 mg/kg; in the test with E. coli #311 (setting [4]) it was 43.7 mg/kg.

`CN(C)c1cc(NC(=O)CN(C(=O)OCOC(=O)C2CCC2)C(C)(C)C)c(O)c2c1C[C@H]1C[C@H]3[C@H](N(C)C)C(O)=C(C(N)=O)C(=O)[C@@]3(O)C(O)=C1C2=O` [Example 62, ({[(2-{[(5aR,6aS,7S,10aS)-9-(aminocarbonyl)-4,7-bis(dimethylamino)-1,8,10a,11-tetrahydroxy-10,12-dioxo-5,5a,6,6a,7,10,10a,12-octahydrotetracen-2-yl]amino}-2-oxoethyl)(tert-butyl)amino]carbonyl}oxy)methyl cyclobutanecarboxylate]: the MIC is 8 µg/mL (≈ 10.8 µM) in the test on Salmonella spp. GC 235 (setting [5]); 1 µg/mL (≈ 1.35 µM) in the test on Salmonella spp. GC 235 (setting [6]); more than 64 µg/mL against Salmonella spp. GC 235 (setting [7]); 32 µg/mL (≈ 43.1 µM) with S. cholerasius GC 1355 (pre-incubation in human serum); 2 µg/mL (≈ 2.7 µM) in the test on S. cholerasius GC 1355 (pre-incubation in mouse serum); more than 64 µg/mL in the test with S. cholerasius GC 1355 (pre-incubation in water). In addition, the MIC in the test with Salmonella spp. GC 566 (setting [8]) is 16 µg/mL (≈ 21.6 µM); with Salmonella spp. GC 566 (setting [9]), 1 µg/mL (≈ 1.35 µM); in the test with Salmonella spp. GC 566 (setting [10]), more than 64 µg/mL. For the same compound, the ED50 in the test with E. coli #311 (setting [1]) was 4 to 8 mg/kg; with E. coli #311 (setting [2]), more than 32 mg/kg.

For `CN(C)c1cc(NC(=O)CN(C(=O)OCOC(=O)CCC2CCCCC2)C(C)(C)C)c(O)c2c1C[C@H]1C[C@H]3[C@H](N(C)C)C(O)=C(C(N)=O)C(=O)[C@@]3(O)C(O)=C1C2=O` [Example 63, ({[(2-{[(5aR,6aS,7S,10aS)-9-(aminocarbonyl)-4,7-bis(dimethylamino)-1,8,10a,11-tetrahydroxy-10,12-dioxo-5,5a,6,6a,7,10,10a,12-octahydrotetracen-2-yl]amino}-2-oxoethyl)(tert-butyl)amino]carbonyl}oxy)methyl 3-cyclohexylpropanoate], the MIC against Salmonella spp. GC 235 (setting [5]) is more than 64 µg/mL; in the test with Salmonella spp. GC 235 (setting [6]) it was 1 µg/mL (≈ 1.25 µM); in the test on Salmonella spp. GC 235 (setting [7]) it was more than 64 µg/mL; with S. cholerasius GC 1355 (pre-incubation in human serum), more than 64 µg/mL; in the test on S. cholerasius GC 1355 (pre-incubation in mouse serum) it was 2 µg/mL (≈ 2.51 µM); in the test with S. cholerasius GC 1355 (pre-incubation in water) it was more than 64 µg/mL. Further, the figures for the MIC against Salmonella spp. GC 566 (setting [8]), against Salmonella spp. GC 566 (setting [9]) and against Salmonella spp. GC 566 (setting [10]) were more than 64 µg/mL, 1 µg/mL (≈ 1.25 µM) and more than 64 µg/mL, respectively. Besides, the figures for the ED50 in the test with E. coli #311 (setting [1]) and with E. coli #311 (setting [2]) were 4 to 8 mg/kg and more than 32 mg/kg, respectively.
